# Data as given in patent US9499538B2, “Estrogen receptor modulators and uses thereof” (Seragon Pharmaceuticals, Inc., priority 2012, dated 2016).
# How the values were obtained:
# [1] = system: MCF-7 cells; assay: Breast Cancer Cell Viability Assays (MCF-7, CellTiter-Glo); type: cell-based; conditions: 5 days' compound exposure; for IC50: Homo sapiens, MCF7, 120 h
# Experimental: MCF-7 cells were adjusted to a concentration of 20,000 cells per mL in RPMI containing 10% FBS and 20 mM HEPES. 16 microliters of the cell suspension (320 cells) was added to each well of a 384 well plate, and the cells were incubated overnight to allow the cells to adhere. The following day an eleven point, serial semilog dilution of each compound was added to the cells in 16 μL at a final concentration ranging from 0.3-0.000003 μM. After 5 days' compound exposure, 16 μL of CellTiter-GLo (Promega, Madison Wis.) was added to the cells, and the relative luminescence units (RLUs) of each well were determined. CellTiter-Glo added to 32 μL of medium without cells was used to obtain a background value. The Percent viability of each sample was determined as follows: (RLU sample−RLU background/RLU untreated cells−RLU background)×100=% viability. […]
# [2] = target: T1, ER-α in MCF-7 cells (Homo sapiens, UniProt P03372); assay: Breast Cancer Cell ER-α In Cell Western Assay (SP1); type: cell-based; conditions: 4 or 24 hr post compound addition; for Emax: MCF7, SP1 antibody, read-out: ER-α In Cell Western Assay (SP1) Max Response; for DC50: SP1 antibody, read-out: ER-α In Cell Western Assay (SP1) IC50
# T1 construct: endogenous in cells; host or cells: MCF-7
# T1 sequence (P03372 1-595): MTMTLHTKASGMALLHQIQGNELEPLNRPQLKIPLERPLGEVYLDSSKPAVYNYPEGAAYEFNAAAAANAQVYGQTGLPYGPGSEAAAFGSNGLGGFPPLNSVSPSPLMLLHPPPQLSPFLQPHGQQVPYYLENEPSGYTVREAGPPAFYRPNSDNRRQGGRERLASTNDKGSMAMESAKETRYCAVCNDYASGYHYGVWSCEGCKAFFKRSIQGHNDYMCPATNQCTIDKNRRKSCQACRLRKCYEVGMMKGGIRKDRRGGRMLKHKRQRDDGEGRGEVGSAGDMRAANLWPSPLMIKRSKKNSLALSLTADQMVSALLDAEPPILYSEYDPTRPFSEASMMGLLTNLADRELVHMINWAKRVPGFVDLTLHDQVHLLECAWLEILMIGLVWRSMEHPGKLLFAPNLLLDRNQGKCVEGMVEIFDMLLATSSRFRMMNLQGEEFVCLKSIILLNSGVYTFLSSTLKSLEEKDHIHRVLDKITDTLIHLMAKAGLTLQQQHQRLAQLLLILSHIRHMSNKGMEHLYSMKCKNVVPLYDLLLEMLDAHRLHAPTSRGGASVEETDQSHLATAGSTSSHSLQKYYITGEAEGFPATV
# Experimental: MCF-7 cells were adjusted to a concentration of 200,000 cells per mL in RPMI containing 10% charcoal-stripped FBS and 20 mM HEPES. 16 microliters of the cell suspension (3200 cells) was added to each well of a poly-D-lysine 384 well plate, and the cells were incubated overnight to allow the cells to adhere. The following day an eleven point, serial semilog dilution of each compound was added to the cells in 16 μL at a final concentration ranging from 0.3-0.000003 μM. At 4 or 24 hr post compound addition, the cells were fixed (10% formalin in PBS) for 20 minutes. Cells were permeablized in PBS 0.1% Triton and blocked with LICOR blocking buffer (50 μl/well, 90′). The wells were then incubated overnight at 4° C. with SP1 rabbit monoclonal Ab (Thermo Scientific) diluted 1:1000 in LICOR blocking buffer/0.1% Tween-20. Wells which were treated with blocking buffer with Tween but no antibody were used as a background control. Wells were washed with 0.1% Tween-20/PBS and then incubated in goat anti-rabbit IRDye™ 800CW (LICOR Inc.; 1:10000) and DRAQ5 DNA dye (1:2000 for 2 mM stock) diluted in LICOR blocking buffer containing 0.1% Tween-20 and 0.01% SDS for 60 minutes. Cells were washed (50 μl/well, 5′ each) in 0.1% Tween-20/PBS. Plates were scanned on a LICOR Odyssey infrared imaging system. Integrated intensities in the 800 nm channel and 700 nm channel were measured to determine levels of ER and DNA respectively. Percent ER levels were determined as follows: (Integrated intensity 800 nm sample/integrated intensity 700 nm sample)/(Integrated intensity 800 nm untreated cells/integrated intensity 700 nm untreated cells)×100=% ER levels. […]
SMILES,MCF7 Viability Assay Max Response [1],IC50 [1],Emax [2],DC50 [2]
"Cc1cscc1/C(=C(\c1ccc(/C=C/C(=O)O)cc1)c1ccc2scnc2c1)C(C)C [Example 20, (E)-3-(4-((E)-1-(Benzo[d]thiazol-5-yl)-3-methyl-2-(4-methylthiophen-3-yl)but-1-en-1-yl)phenyl)acrylic acid]",++ (++ = a single % value ≧ 40%),≤ 100 nM,≥ 40%,≤ 100 nM
"N#Cc1c(/C(=C(/c2ccccc2)C2CCC2)c2ccc(/C=C/C(=O)O)cc2)ccc2scnc12 [Example 21, (E)-3-(4-((E)-1-(4-Cyanobenzo[d]thiazol-5-yl)-2-cyclobutyl-2-phenylvinyl)phenyl)acrylic acid]",++ (++ = a single % value ≧ 40%),≤ 100 nM,≥ 40%,≤ 100 nM
"O=C(O)/C=C/c1ccc(/C(=C(\c2ccccc2)C2CCC2)c2cc(F)c3[nH]ncc3c2F)cc1 [Example 22, (E)-3-(4-((E)-2-Cyclobutyl-1-(4,7-difluoro-1H-indazol-5-yl)-2-phenylvinyl)phenyl)acrylic acid]",++ (++ = a single % value ≧ 40%),> 100 nM,≥ 40%,> 100 nM
"COc1ccc(/C(=C(\c2ccc(/C=C/C(=O)O)cc2)c2ccc3[nH]nc(F)c3c2)C2CCC2)cc1 [Example 23, (E)-3-(4-((E)-2-Cyclobutyl-1-(3-fluoro-1H-indazol-5-yl)-2-(4-methoxyphenyl)vinyl)phenyl)acrylic acid]",++ (++ = a single % value ≧ 40%),≤ 100 nM,≥ 40%,≤ 100 nM
"COc1cccc(/C(=C(\c2ccc(/C=C/C(=O)O)cc2)c2ccc3[nH]nc(F)c3c2)C2CCC2)c1 [Example 24, (E)-3-(4-((E)-2-Cyclobutyl-1-(3-fluoro-1H-indazol-5-yl)-2-(3-methoxyphenyl)vinyl)phenyl)acrylic acid]",++ (++ = a single % value ≧ 40%),≤ 100 nM,≥ 40%,≤ 100 nM
"O=C(O)/C=C/c1ccc(/C(=C(\c2ccccc2)C2CCC2)c2ccc3[nH]ncc3c2F)cc1 [Example 25, (E)-3-(4-((E)-2-Cyclobutyl-1-(4-fluoro-1H-indazol-5-yl)-2-phenylvinyl)phenyl)acrylic acid]",++ (++ = a single % value ≧ 40%),≤ 100 nM,≥ 40%,≤ 100 nM
"O=C(O)/C=C/c1ccc(/C(=C(\c2ccccc2)C2CC2)c2ccc3[nH]nc(F)c3c2)cc1 [Example 26, (E)-3-(4-((E)-2-Cyclopropyl-1-(3-fluoro-1H-indazol-5-yl)-2-phenylvinyl)phenyl)acrylic acid]",++ (++ = a single % value ≧ 40%),≤ 100 nM,≥ 40%,≤ 100 nM
"O=C(O)/C=C/c1ccc(/C(=C(\c2ccccc2)C2CCC2)c2ccc3[nH]c(=O)oc3c2)cc1 [Example 27, (E)-3-(4-((E)-2-Cyclobutyl-1-(2-oxo-2,3-dihydrobenzo[d]oxazol-6-yl)-2-phenylvinyl)phenyl)acrylic acid]",++ (++ = a single % value ≧ 40%),≤ 100 nM,≥ 40%,≤ 100 nM
"O=C(O)/C=C/c1ccc(/C(=C(\c2ccc(F)cc2Cl)C2CCC2)c2ccc3[nH]c(=O)oc3c2)cc1 [Example 28, (E)-3-(4-((E)-2-(2-Chloro-4-fluorophenyl)-2-cyclobutyl-1-(2-oxo-2,3-dihydrobenzo[d]oxazol-6-yl)vinyl)phenyl)acrylic acid]",++ (++ = a single % value ≧ 40%),≤ 100 nM,≥ 40%,≤ 100 nM
"Cc1ccccc1/C(=C(\c1ccc(/C=C/C(=O)O)cc1)c1ccc2[nH]nc(F)c2c1)C1CC1 [Example 29, (E)-3-(4-((E)-2-Cyclopropyl-1-(3-fluoro-1H-indazol-5-yl)-2-(o-tolyl)vinyl)phenyl)acrylic acid]",++ (++ = a single % value ≧ 40%),≤ 100 nM,≥ 40%,≤ 100 nM
"COc1ccc(/C(=C(\c2ccc(/C=C/C(=O)O)cc2)c2ccc3[nH]nc(F)c3c2)C2CC2)cc1 [Example 30, (E)-3-(4-((E)-2-Cyclopropyl-1-(3-fluoro-1H-indazol-5-yl)-2-(4-methoxyphenyl)vinyl)phenyl)acrylic acid]",++ (++ = a single % value ≧ 40%),≤ 100 nM,≥ 40%,≤ 100 nM
"COc1cccc(/C(=C(\c2ccc(/C=C/C(=O)O)cc2)c2ccc3[nH]nc(F)c3c2)C2CC2)c1 [Example 31, (E)-3-(4-((E)-2-Cyclopropyl-1-(3-fluoro-1H-indazol-5-yl)-2-(3-methoxyphenyl)vinyl)phenyl)acrylic acid]",++ (++ = a single % value ≧ 40%),≤ 100 nM,≥ 40%,≤ 100 nM
"CC/C(=C(/c1ccc(/C=C/C(=O)O)cc1)c1cc(F)c2[nH]ncc2c1F)c1ccccc1 [Example 32, (E)-3-(4-((E)-1-(4,7-Difluoro-1H-indazol-5-yl)-2-phenylbut-1-en-1-yl)phenyl)acrylic acid]",++ (++ = a single % value ≧ 40%),> 100 nM,≥ 40%,> 100 nM
"O=C(O)/C=C/c1ccc(/C(=C(\c2ccccc2)C2CCC2)c2ccc3[nH]ncc3n2)cc1 [Example 33, (E)-3-(4-((E)-2-Cyclobutyl-2-phenyl-1-(1H-pyrazolo[4,3-b]pyridin-5-yl)vinyl)phenyl)acrylic acid]",++ (++ = a single % value ≧ 40%),≤ 100 nM,≥ 40%,≤ 100 nM
"O=C(O)/C=C/c1ccc(/C(=C(\c2ccc(F)cc2Cl)C2CCC2)c2ccc3[nH]ncc3n2)cc1 [Example 34, (E)-3-(4-((E)-2-(2-Chloro-4-fluorophenyl)-2-cyclobutyl-1-(1H-pyrazolo[4,3-b]pyridin-5-yl)vinyl)phenyl)acrylic acid]",++ (++ = a single % value ≧ 40%),≤ 100 nM,≥ 40%,≤ 100 nM
"CC(C)/C(=C(/c1ccc(/C=C/C(=O)O)cc1)c1ccc2[nH]ncc2c1)c1ccccc1Cl [Example 35, (E)-3-(4-((E)-2-(2-Chlorophenyl)-1-(1H-indazol-5-yl)-3-methylbut-1-en-1-yl)phenyl)acrylic acid]",++ (++ = a single % value ≧ 40%),≤ 100 nM,≥ 40%,≤ 100 nM
"O=C(O)/C=C/c1ccc(/C(=C(\c2ccccc2)C2CCC2)c2ccc3[nH]nc(F)c3c2)cn1 [Example 36, (E)-3-(5-((Z)-2-Cyclobutyl-1-(3-fluoro-1H-indazol-5-yl)-2-phenylvinyl)pyridin-2-yl)acrylic acid]",++ (++ = a single % value ≧ 40%),≤ 100 nM,≥ 40%,≤ 100 nM
"Cc1cc(/C(=C(\c2ccccc2)C2CCC2)c2ccc3[nH]nc(F)c3c2)ccc1/C=C/C(=O)O [Example 37, (E)-3-(4-((E)-2-Cyclobutyl-1-(3-fluoro-1H-indazol-5-yl)-2-phenylvinyl)-2-methylphenyl)acrylic acid]",++ (++ = a single % value ≧ 40%),≤ 100 nM,≥ 40%,≤ 100 nM
